Here are results for 1 substance from patent US6461664B1, “Chelated feed additive and method of preparation” (Agristudio S. r. L., priority 1999, dated 2002).

A short description of this data set: solubility in water of the dried chelate. It counts as physicochemical. The settings on record: ambient temperature, white powder. As to the method:
In the case described, the dried chelate is in the form of a white powder, with a melting point of about 248° C. and a solubility in water of about 20 g/l at ambient temperature.

In the case of (CH3SCH2CH2CHOHCO)2Zn [Example 1], the solubility in water entry is “about 20 g/l”.
